Results taken from US10456405B2, “Nitric oxide-releasing prodrug molecule of substituted quinazolines” (ZHEJIANG HUAHAI PHARMACEUTICAL CO., LTD, priority 2015, dated 2019).
Read-outs that look alike come from different tables or passages of the source.

Tests used:
[1] = rat, in vivo
Method: Experimental method: Intravenous injection solutions (the administration concentrations of the tested compounds were 1 mg/kg) and oral gastric perfusates (the administration concentrations of the test compounds were 5 mg/kg) of the test compounds were prepared, and intravenously and orally administered to three SD rats, respectively. The concentrations of the whole blood for H130 at 0.083 h, 0.25 h, 0.5 h, 1 h, 2 h, 4 h, 8 h, and 24 h after administration were determined by LC-MS/MS, respectively. The pharmacokinetic parameters were compared by a drug-time curve. Sample pretreatment: 150 μL of the whole blood to be tested was aspirated accurately. 600 μL of internal standard solution (diluted to 0.5 μg/mL with methanol) was added, sufficiently mixed by a vortex mixer, and centrifuged at 13000 r/min for 20 min at 4° C. 3 μL of the supernatant was taken into a sample vial.
Chromatographic conditions: C18 reversed-phase chromatographic column; gradient elution with mobile phase A: water/acetonitrile (v:v=95:5) with 0.025% of formic acid and 1 mM of ammonium acetate added thereto, and mobile phase B: acetonitrile/water (v:v=95:5) with 0.025% of formic acid and 1 mM of ammonium acetate added thereto.

[2] = Release of HNO (headspace gas chromatography of nitrous oxide); conditions: PBS pH 7.4, 37° C., argon, 90 min
Method: Experiment 2. Experimental study on the tested compounds for releasing HNO HNO rapidly dimerizes and dehydrates to produce nitrous oxide in aqueous solution. In the experiment of detecting HNO, gas chromatographic headspace analysis is generally used to determine the amount of the released nitrous oxide, thereby indirectly detect the level of releasing HNO of the compound.
Experimental procedure: Each of the tested compounds was prepared to 20 mg/mL of mother liquor with DMF. Prior to the start of the experiment, 50 μL of drug mother liquor was placed into a 20 mL headspace sample vial. The tested compound was diluted by adding 5 mL of PBS buffer with pH 7.4. The temperature of the resulting sample was kept at 37° C. under argon gas for 90 min. Then the top gas was extracted for gas chromatographic analysis of nitrous oxide by using Angeli's Salt as a positive compound in the experiment.

[3] = 2 h
Method: Experimental method: The tested compounds (2 μM) were added into mouse or human plasma, and incubated at 37° C. Samples were taken at 0, 10, 30, 60 and 120 min respectively. The reaction was stopped by adding a stop agent. The mixture was sufficient shaken, and centrifuged at 4000 rpm for 10 min at 4° C. The supernatant was taken. The concentrations of the tested compounds and their metabolite (H130) in the supernatant were measured by LC-MS/MS.

apoE−/− mice = experiment: apoE−/− mouse atherosclerosis model, high-fat diet 10 weeks; type: in vivo
Description: Experimental method: 36 eight-week-old male apoE-/- mice were selected and randomly divided into a blank administration group, an […] administration group, an […] administration group, an […] administration group, an […] administration group, and an […] administration group, 6 mice per group. The mice in each group were fed with high-fat diet for 10 weeks. At the beginning of the high-fat feeding, the mice in each group were administrated. Each tested compound was intragastric administered at the dose of 150 mg/kg twice a day. The blank administration group was given corresponding dose of saline. […] After the blood was taken, the serum, heart, and aorta were isolated. The levels of total cholesterol (TC), high density lipoprotein cholesterol (HDL-C), and low density lipoprotein cholesterol (LDL-C) in the serum of the mice in each group were measured by automatic biochemical analyzer. The ApoA1 expression level was detected with an ApoA1 kit. The content of NO in the serum of the mice was determined with a total NO test kit (Beyotime). The NOS activities of the heart, aorta, and serum were determined with an NOS test kit (Beyotime). The content of eNOS was calculated by the difference between the measured values determined before and after adding eNOS inhibitor L-NAME (Beyotime).

ApoA-I mRNA = experiment: Regulation of ApoA-I mRNA in HepG2 cells (real-time PCR); type: cell-based; set-up: key: Active: When 100 μM of the tested compound allowed ApoA-I mRNA in HepG2 cells to increase more than 15%, then the test compound was known as an ApoA active compound; conditions: 100 μM, 48 h, relative to DMSO control
Method: Experiment 5. Regulation of the Tested Compounds on ApoA-I mRNA HepG2 cells were cultured for 24 h in a 24-well plate with 400 μl of MEM medium containing 0.5% (v/v) of fetal bovine serum. Then each of the tested compounds (100 μM) and the positive control RVX-208 (100 μM) were added. The cells were cultured for another 48 h. The medium was aspirated out. After washing with 200 μl of PBS, 85 μl of cell lysis solution was added into the cells in each well. The cells were incubated at room temperature for 5 to 10 min to be completely dissolved and detached. The mRNA was extracted from the cells with a kit. The extracted mRNA were used for a real-time fluorescence quantitative PCR detection with RNA Fluorescence (RiboGreen) Quantitation Assay Kit and ApoA-I mRNA Primer-Probe Mixture from the company of Applied Biosystems.
After obtaining the Ct values, the induction fold of each test compound relative to DMSO control was calculated. The induction fold was used to reflect the ability of regulating ApoA-I mRNA for the tested compounds. When 100 μM of the tested compound allowed ApoA-I mRNA in HepG2 cells to increase more than 15%, then the test compound was known as an ApoA active compound.

db/db mice = experiment: Serum NO and heart eNOS in db/db mice after oral gavage; type: in vivo; conditions: blank = 100, oral gavage 150 mg/kg (isosorbide mononitrate 5 mg/kg), 1 h after administration (H101: 2 h)
Description: Experimental method: 25 eight-week-old db/db mice (strain: BKS.Cg−+Leprdb/+leprdb/JclSlac; grade: SPF; gender: male; source: Shanghai SLAC Laboratory Animal Co., Ltd.) were selected. 3 of them were selected as the blank administration control. 2 mice were used as the positive drug control (isosorbide mononitrate). The remaining 20 mice were randomly divided into 5 groups, 4 mice per group, which are H101 administration group, H111 administration group, H116 administration group, H119 administration group, and H130 administration group. The tested compounds of the positive drug control group and each administration group were dissolved in DMSO. Then PEG400 was added. The mixture was shaken and mixed thoroughly. At last, 10% of HP-β-CD was added. The mixture was shaken and mixed thoroughly. The ratio of each solvent was DMSO: PEG400:10% of HP-β-CD=5:67.5:27.5. The administration group was administered by oral gavage at the dose of 150 mg/kg. The positive drug control group was administered at the dose of 5 mg/kg. The mice in the H101 administration group were sacrificed at 2 h after the administration. The mice in the remaining administration groups were sacrificed at 1 h after the administration. The blood was collected respectively into 1.5 mL centrifuge tube, standing at room temperature for more than 30 min, and then centrifuged (3000 rpm, 10 min). The supernatant serum was aspirated, and stored at −80° C. for testing. After the blood was collected, the heart was cut with the thoracic aorta. Three parts of the heart were weighed and placed into cryovials, rapidly frozen in liquid nitrogen, and cryopreserved at −80° C. for testing. The aorta and aortic arch were weighed, rapidly frozen in liquid nitrogen, and cryopreserved at −80° C. for testing. The content of NO in the serum of the […] mice was determined by a total NO test kit (Beyotime). The content of NOS in the heart of the mice was determined with an NOS test kit (Beyotime). The content of eNOS was calculated by the difference between the measured values before and after adding the eNOS inhibitor L-NAME (Beyotime).

[4] = blank administration group = 100, 150 mg/kg twice a day, 10 weeks
[5] = serum, high-fat diet 10 weeks, intragastric 150 mg/kg twice a day

Structure (SMILES): COc1cc(OC)c2c(=O)[nH]c(-c3cc(C)c(OCCOC(=O)CCC(=O)ONS(=O)(=O)c4cccc(S(C)(=O)=O)c4)c(C)c3)nc2c1 [Compound H116]
- release of prototype compound H130 after administration [1]: can be rapidly released
- AUCRatio (Dosage Calibration) ([1]; iv, 1 mg/kg): 51.6%
- AUCRatio (Dosage Calibration) ([1]; po, 5 mg/kg): 45.3%
- Molar Quantities of N2O/Sample [2]: 15.3%
- stability in human plasma [3]: good stability
- Aorta eNOS (apoE−/− mice; [4]): 136%
- ApoA1 (apoE−/− mice; [4]): 128%
- Heart eNOS (apoE−/− mice; [4]): 148%
- Serum NO (apoE−/− mice; [4]): 138%
- Serum eNOS (apoE−/− mice; [4]): 123%
- HDL-C (apoE−/− mice; [5]): 74 ± 11 mg/dL
- LDL-C (apoE−/− mice; [5]): 315 ± 31 mg/dL
- TC (apoE−/− mice; [5]): 1123 ± 73 mg/dL
- Upregulation of Apoa-I Mrna Level (ApoA-I mRNA): Active
- Heart eNOS (db/db mice): 159%
- Serum NO (db/db mice): 147%
